Assay results: US20160122820A1, “Screening Method for Identifying Active Agents” (Avon Products, Inc., priority 2014, published 2016)

Tested on: human skin
Details: for CYP7B1 gene expression (fold change): in vivo; for BIRC3 gene expression (fold change) / C1orf162 gene expression (fold change) / CCR2 gene expression (fold change) / CD1B gene expression (fold change) / CD2 gene expression (fold change) / CD53 gene expression (fold change) / CD86 gene expression (fold change) / CD226 gene expression (fold change) / CHRM4 gene expression (fold change) / CLEC7A gene expression (fold change) / COL3A1 gene expression (fold change) / COL5A2 gene expression (fold change) / COL6A6 gene expression (fold change) / COL14A1 gene expression (fold change) / CTSS gene expression (fold change) / CYBB gene expression (fold change) / CYTIP gene expression (fold change) / DIO2 gene expression (fold change) / EVI2B gene expression (fold change) / FAP gene expression (fold change) / FCGR2A gene expression (fold change) / FPR3 gene expression (fold change) / FYB gene expression (fold change) / GDPD2 gene expression (fold change) / GLIPR1 gene expression (fold change) / GMFG gene expression (fold change) / GPR174 gene expression (fold change) / GZMK gene expression (fold change) / HIST1H3A gene expression (fold change) / HLA-DPA1 gene expression (fold change) / HLA-DQA1 gene expression (fold change) / HLA-DRA gene expression (fold change) / IFI44L gene expression (fold change) / IFI44 gene expression (fold change) / IL33 gene expression (fold change) / IRF8 gene expression (fold change) / KIAA0226L gene expression (fold change) / KLRB1 gene expression (fold change) / LYZ gene expression (fold change) / MIRLET7C gene expression (fold change) / MNDA gene expression (fold change) / OCA2 gene expression (fold change) / PARP14 gene expression (fold change) / PCSK2 gene expression (fold change) / PLAC8 gene expression (fold change) / PLEK gene expression (fold change) / PTPRC gene expression (fold change) / RGS1 gene expression (fold change) / RNASE6 gene expression (fold change) / SAMD9 gene expression (fold change) / SELL gene expression (fold change) / SPP1 gene expression (fold change) / SRGN gene expression (fold change) / ST8SIA4 gene expression (fold change) / TPPP gene expression (fold change) / TRPM1 gene expression (fold change) / UGT2A1 gene expression (fold change) / VCAM1 gene expression (fold change): photodamaged forearm skin, 0.02% partially occlusive patch 30 days, 30-day biopsy relative to baseline, negative = downregulated

`CC1=C(/C=C/C(C)=C/C=C/C(C)=C/C(=O)O)C(C)(C)CCC1` [RA, retinoic acid] was tested, and the “CYP7B1 gene expression (fold change)” value was 1.320 fold change, the “BIRC3 gene expression (fold change)” value was 1.555 fold change and the “C1orf162 gene expression (fold change)” value was 1.356 fold change. For the same compound, the “CCR2 gene expression (fold change)” value was 1.658 fold change, the “CD1B gene expression (fold change)” value was 1.510 fold change and the “CD2 gene expression (fold change)” value was 1.339 fold change. For the same compound, the “CD53 gene expression (fold change)” value was 1.586 fold change, the “CD86 gene expression (fold change)” value was 1.468 fold change and the “CD226 gene expression (fold change)” value was 1.423 fold change. The “CHRM4 gene expression (fold change)” value was −1.326 fold change, the “CLEC7A gene expression (fold change)” value was 1.964 fold change and the “COL3A1 gene expression (fold change)” value was 1.443 fold change. For the same compound, the “COL5A2 gene expression (fold change)” value was 1.369 fold change, the “COL6A6 gene expression (fold change)” value was 2.091 fold change and the “COL14A1 gene expression (fold change)” value was 1.311 fold change. The “CTSS gene expression (fold change)” value was 1.302 fold change, the “CYBB gene expression (fold change)” value was 1.637 fold change and the “CYTIP gene expression (fold change)” value was 1.336 fold change. For the same compound, the “DIO2 gene expression (fold change)” value was −1.548 fold change, the “EVI2B gene expression (fold change)” value was 1.405 fold change and the “FAP gene expression (fold change)” value was 1.370 fold change. For the same compound, the “FCGR2A gene expression (fold change)” value was 1.366 fold change, the “FPR3 gene expression (fold change)” value was 1.439 fold change and the “FYB gene expression (fold change)” value was 1.483 fold change. The “GDPD2 gene expression (fold change)” value was −2.585 fold change, the “GLIPR1 gene expression (fold change)” value was 1.422 fold change and the “GMFG gene expression (fold change)” value was 1.358 fold change. For the same compound, the “GPR174 gene expression (fold change)” value was 1.411 fold change, the “GZMK gene expression (fold change)” value was 1.571 fold change and the “HIST1H3A gene expression (fold change)” value was 1.375 fold change. The “HLA-DPA1 gene expression (fold change)” value was 1.466 fold change, the “HLA-DQA1 gene expression (fold change)” value was 1.594 fold change and the “HLA-DRA gene expression (fold change)” value was 1.403 fold change. For the same compound, the “IFI44L gene expression (fold change)” value was 1.472 fold change, the “IFI44 gene expression (fold change)” value was 1.337 fold change and the “IL33 gene expression (fold change)” value was 1.587 fold change. The “IRF8 gene expression (fold change)” value was 1.725 fold change, the “KIAA0226L gene expression (fold change)” value was 1.307 fold change and the “KLRB1 gene expression (fold change)” value was 1.363 fold change. For the same compound, the “LYZ gene expression (fold change)” value was 2.271 fold change, the “MIRLET7C gene expression (fold change)” value was −1.319 fold change and the “MNDA gene expression (fold change)” value was 1.406 fold change. The “OCA2 gene expression (fold change)” value was −1.432 fold change, the “PARP14 gene expression (fold change)” value was 1.364 fold change and the “PCSK2 gene expression (fold change)” value was −1.825 fold change. For the same compound, the “PLAC8 gene expression (fold change)” value was 1.844 fold change, the “PLEK gene expression (fold change)” value was 1.667 fold change and the “PTPRC gene expression (fold change)” value was 1.606 fold change. The “RGS1 gene expression (fold change)” value was 1.503 fold change, the “RNASE6 gene expression (fold change)” value was 1.540 fold change and the “SAMD9 gene expression (fold change)” value was 5.339 fold change. For the same compound, the “SELL gene expression (fold change)” value was 1.691 fold change, the “SPP1 gene expression (fold change)” value was 1.416 fold change and the “SRGN gene expression (fold change)” value was 1.569 fold change. For the same compound, the “ST8SIA4 gene expression (fold change)” value was 1.389 fold change, the “TPPP gene expression (fold change)” value was −1.402 fold change and the “TRPM1 gene expression (fold change)” value was −1.306 fold change. The “UGT2A1 gene expression (fold change)” value was −1.369 fold change and the “VCAM1 gene expression (fold change)” value was 1.730 fold change.
`CC1=C(/C=C/C(C)=C/C=C/C(C)=C/CO)C(C)(C)CCC1` [Retinol, retinol] was tested, and the “CYP7B1 gene expression (fold change)” value was 1.309 fold change, the “BIRC3 gene expression (fold change)” value was 1.815 fold change and the “C1orf162 gene expression (fold change)” value was 1.301 fold change. For the same compound, the “CCR2 gene expression (fold change)” value was 1.416 fold change, the “CD1B gene expression (fold change)” value was 1.844 fold change and the “CD2 gene expression (fold change)” value was 1.311 fold change. The “CD53 gene expression (fold change)” value was 1.483 fold change, the “CD86 gene expression (fold change)” value was 1.348 fold change and the “CD226 gene expression (fold change)” value was 1.396 fold change. For the same compound, the “CHRM4 gene expression (fold change)” value was −1.401 fold change, the “CLEC7A gene expression (fold change)” value was 1.502 fold change and the “COL3A1 gene expression (fold change)” value was 1.455 fold change. The “COL5A2 gene expression (fold change)” value was 1.380 fold change, the “COL6A6 gene expression (fold change)” value was 2.245 fold change and the “COL14A1 gene expression (fold change)” value was 1.408 fold change. For the same compound, the “CTSS gene expression (fold change)” value was 1.514 fold change, the “CYBB gene expression (fold change)” value was 1.413 fold change and the “CYTIP gene expression (fold change)” value was 1.481 fold change. For the same compound, the “DIO2 gene expression (fold change)” value was −1.384 fold change, the “EVI2B gene expression (fold change)” value was 1.323 fold change and the “FAP gene expression (fold change)” value was 1.518 fold change. For the same compound, the “FCGR2A gene expression (fold change)” value was 1.346 fold change, the “FPR3 gene expression (fold change)” value was 1.321 fold change and the “FYB gene expression (fold change)” value was 1.404 fold change. The “GDPD2 gene expression (fold change)” value was −1.363 fold change, the “GLIPR1 gene expression (fold change)” value was 1.450 fold change and the “GMFG gene expression (fold change)” value was 1.300 fold change. The “GPR174 gene expression (fold change)” value was 1.339 fold change, the “GZMK gene expression (fold change)” value was 1.402 fold change and the “HIST1H3A gene expression (fold change)” value was −1.363 fold change. The “HLA-DPA1 gene expression (fold change)” value was 1.364 fold change, the “HLA-DQA1 gene expression (fold change)” value was 1.378 fold change and the “HLA-DRA gene expression (fold change)” value was 1.439 fold change. The “IFI44L gene expression (fold change)” value was 1.320 fold change, the “IFI44 gene expression (fold change)” value was 1.429 fold change and the “IL33 gene expression (fold change)” value was 1.360 fold change. The “IRF8 gene expression (fold change)” value was 1.392 fold change, the “KIAA0226L gene expression (fold change)” value was 1.371 fold change and the “KLRB1 gene expression (fold change)” value was 1.377 fold change. The “LYZ gene expression (fold change)” value was 1.603 fold change, the “MIRLET7C gene expression (fold change)” value was 1.366 fold change and the “MNDA gene expression (fold change)” value was 1.805 fold change. For the same compound, the “OCA2 gene expression (fold change)” value was −1.334 fold change, the “PARP14 gene expression (fold change)” value was 1.356 fold change and the “PCSK2 gene expression (fold change)” value was −1.566 fold change. For the same compound, the “PLAC8 gene expression (fold change)” value was 1.434 fold change, the “PLEK gene expression (fold change)” value was 1.449 fold change and the “PTPRC gene expression (fold change)” value was 1.446 fold change. For the same compound, the “RGS1 gene expression (fold change)” value was 1.379 fold change, the “RNASE6 gene expression (fold change)” value was 1.452 fold change and the “SAMD9 gene expression (fold change)” value was 1.382 fold change. The “SELL gene expression (fold change)” value was 1.304 fold change, the “SPP1 gene expression (fold change)” value was 1.604 fold change and the “SRGN gene expression (fold change)” value was 1.353 fold change. The “ST8SIA4 gene expression (fold change)” value was 1.366 fold change, the “TPPP gene expression (fold change)” value was −1.328 fold change and the “TRPM1 gene expression (fold change)” value was −1.431 fold change. For the same compound, the “UGT2A1 gene expression (fold change)” value was −1.696 fold change and the “VCAM1 gene expression (fold change)” value was 1.357 fold change.
